According to patent publication US20100203084A1, “METHOD FOR TREATING PAIN OR OPIOID DEPENDENCE USING A SPECIFIC TYPE OF NON-OPIOID AGENT IN COMBINATION WITH A SELECTIVE EXCITATORY-OPIOID-RECEPTOR INACTIVATOR” (priority 2006, published 2010):
“Also recorded” adds a separate entry of the source.

Tests used:
[1] = test system: Swiss-Webster mice; conditions: mouse, in vivo
[2] = test system: rodents; conditions: high doses, administered immediately after training, rodents (ref. 20); cited from earlier work
[3] = test system: chronic morphine-dependent mice; experiment: naloxone-precipitated withdrawal hyperalgesia in chronic morphine-dependent mice (tail-flick); conditions: naltrexone 0.1 ng/kg with naloxone, FIG. 9
[4] = several species, including rat and human (ref. 20); cited from earlier work
[5] = test system: rodents and humans; conditions: moderately low doses (˜1 μg/kg), rodents and humans (refs. 20-22); cited from earlier work

SMILES: NC(CCC(=O)O)C(=O)O (racemic) [glutamic acid, dl-glutamic acid]
- duration of hyperalgesia, glutamic acid alone [1]: > 6 h
- effect on tail-flick latencies, glutamic acid alone [1]: long-lasting hyperalgesia

SMILES: CC(C)Cn1c(=O)n(C)c(=O)c2[nH]cnc21 [IBMX, 3-isobutyl-1-methylxanthine]
- duration of hyperalgesia, IBMX alone [1]: > 3 h
- effect on tail-flick latencies, IBMX alone [1]: long-lasting hyperalgesia
- effect on memory in passive avoidance tasks [2]: improve memory

SMILES: N[C@@H](CCC(=O)O)C(=O)[O-].[Na+] [MSG, monosodium glutamate]
- effect on tail-flick latencies, MSG alone, 10-fold-higher dose [1]: evokes hyperalgesia
- effect on tail-flick latencies, MSG alone, lower dose [1]: does not evoke significant hyperalgesia

SMILES: CN[C@H](CC(=O)O)C(=O)O [NMDA, N-methyl-D-aspartate]
- duration of hyperalgesia, NMDA alone [1]: > 5 h
- effect on tail-flick latencies, NMDA alone [1]: decreases in tail-flick latencies (indicating hyperalgesia)

SMILES: O=C1CC[C@@]2(O)[C@H]3Cc4ccc(O)c5c4[C@@]2(CCN3CC2CC2)[C@H]1O5 [NTX, naltrexone]
- effect of cotreatment with 1 pg/kg rolipram in normal mice [1]: prominent, long-lasting analgesia
- effect of delayed high-dose NTX on analgesia from rolipram 1 μg/kg plus CTX-B [1]: rapidly blocked
- effect of delayed much higher dose of NTX in MSG + NTX cotreated mice [1]: blocked both hyperalgesia and analgesia
- effect of high-dose NTX on analgesia from glutamic acid cotreatment [1]: rapid attenuation of the initially prominent analgesia
- effect of high-dose NTX on analgesia from non-narcotic cotreatment [1]: antagonized rapidly
- effect of second dose of NTX alone 24 h after initial cotreatment with rolipram 1 μg/kg [1]: evoked significant analgesia
- effect of second injection of high-dose NTX on NMDA-evoked hyperalgesia and NMDA+NTX analgesia [1]: rapid attenuation of the initially prominent hyperalgesia
- effect of ultra-low-dose NTX co-administered with thousand- to million-fold lower dose of rolipram [1]: remarkable degree of opioid receptor-mediated, long-lasting analgesia
- effect of ultra-low-dose NTX cotreatment on hyperalgesia evoked by glutamate, NMDA, IBMX or rolipram [1]: rapidly blocked and reversed to prominent, long-lasting analgesia
- effect on tail-flick latencies, cotreatment with 1 mg/kg NMDA [1]: blocked NMDA-evoked hyperalgesia, and resulted in prominent analgesia
- effect on tail-flick latencies, cotreatment with 1 mg/kg glutamic acid [1]: blocked glutamic-acid-evoked hyperalgesia, and resulted in prominent analgesia
- effect on tail-flick latencies, cotreatment with 10 mg/kg IBMX, high-dose NTX [1]: not only blocked IBMX-evoked hyperalgesia, but also blocked onset of analgesia during the first hour after dosing
- effect on tail-flick latencies, cotreatment with MSG 1 mg/kg [1]: Prominent analgesia
- effect on tail-flick latencies, cotreatment with rolipram 1 pg/kg [1]: remarkably similar degree of analgesia
- effect on tail-flick latencies, cotreatment with rolipram 1 μg/kg [1]: results in prominent analgesia
- effect on tail-flick latencies, inactivator alone (control) [1]: no alterations in tail-flick latencies
- effect on tail-flick latencies, cotreatment with 10 mg/kg IBMX, ultra-low-dose NTX ([1]; sc): blocked IBMX-evoked hyperalgesia, and resulted in prominent analgesia
- effect on tail-flick latencies, cotreatment with 10-fold-higher dose of MSG ([1]; sc): Prominent analgesia
- effect of ultra-low-dose naltrexone cotreatment on naloxone-precipitated withdrawal hyperalgesia [3]: rapidly converted to analgesia

SMILES: C[C@H](NC(=O)[C@@H](CC(=O)NO)Cc1ccccc1)C(=O)O [kelatorphan]
- effect of kelatorphan on analgesic response to 1 pg/kg rolipram plus 0.1 ng/kg NTX [1]: prolongs the duration of the analgesic response
- effect on baseline tail-flick latency, kelatorphan alone [1]: does not alter baseline tail-flick latency
- effect on tail-flick latencies, kelatorphan 0.1 mg/kg cotreatment with rolipram 1 pg/kg [1]: prominent analgesia
- effect on tail-flick latencies, kelatorphan 1 mg/kg cotreatment with rolipram 1 pg/kg [1]: elicits prominent analgesia

SMILES: Oc1ccc2c3c1O[C@H]1c4[nH]c5c(c4C[C@@]4(O)[C@@H](C2)N(CC2CC2)CC[C@]314)C[C@@]1(O)[C@H]2Cc3ccc(O)c4c3[C@@]1(CCN2CC1CC1)[C@H]5O4 [nor-BNI, nor-binaltorphimine]
- effect on tail-flick latencies, ultra-low-dose mu- or kappa-opioid receptor antagonist cotreatment with rolipram [1]: larger magnitude of analgesia

SMILES: CCOC(=O)C1=C[C@@H](OC(CC)CC)[C@H](NC(C)=O)[C@@H](N)C1 [oseltamivir]
- effect of cotreatment with 1 pg/kg rolipram in normal mice [1]: prominent, long-lasting analgesia

SMILES: COc1ccc(C2CNC(=O)C2)cc1OC1CCCC1 (stereo not drawn) [rolipram]
- effect on tail-flick latencies, rolipram alone, 1 pg/kg [1]: no detectable hyperalgesic effect; also recorded: does not alter baseline tail-flick latency
- effect on tail-flick latencies, rolipram alone, 1 μg/kg [1]: acute hyperalgesic effects
- persistence of effect of a single low dose of rolipram [1]: still effective for more than one day
- absorption after oral administration [4]: absorbed fully and rapidly
- effect on memory in passive avoidance tasks [2]: improve memory
- adverse side-effects [5]: relatively moderate adverse side-effects
- effect on memory behavior [5]: significant enhancement in memory behavior

SMILES: COC(=O)/C=C/C(=O)N[C@@H]1CC[C@@]2(O)[C@H]3Cc4ccc(O)c5c4[C@@]2(CCN3CC2CC2)[C@H]1O5 [β-FNA, β-funaltrexamine]
- effect on tail-flick latencies, ultra-low-dose mu- or kappa-opioid receptor antagonist cotreatment with rolipram [1]: block the acute hyperalgesic effects of rolipram and result in prominent analgesia
